# Experiments:
# [1] = test system: CD11b(+) mononuclear cells from wild type mice; assay: OCL formation by wild type mouse osteoclast precursors, TRACP stain; type: cell-based; settings: 7 days, 50 ng/ml TNFα
# Method: (§1) FIG. 7A-C: 7A. CFU-Blast colony formation. Human CD34(+) cells were cultured with p62-ZZ inhibitor #3 and 1 ng/ml of rhIL-3 IL-6 and SCF for 7 days. Data are shown as the mean±SD (n=5). FIG. 7B. Human OCL formation. Non-adherent mononuclear cells (2.5×10^7 cells/10-cm dish) derived from human bone marrow samples were cultured in α-MEM containing 10% FCS, 100 pg/ml recombinant human GM-CSF(R & D) for 7 days. Then the cells were collected and plated (cell density is 1.0×10^6 cells/nil) in α-MEM containing 20% horse serum with 1 ng/ml TNFα. Half-media changes were performed twice a week containing various concentrations of the p62-ZZ inhibitor #3. The cultures were incubated for a total of 2 weeks at 37° C. with 5% CO2 and 95% humidity. The osteoclasts were stained with the 23C6 antibody which recognizes CD51/61. Data are shown as the mean±SD (n=5). *P<0.01 compared to vehicle treated cultures. 7C. OCL formation by wild type and p62−/− mouse osteoclast precursors. Data is shown as the mean±SD (n=4). *: P<0.01 compared to no-inhibitor cultures. The effects of p62-ZZ inhibitor #3 on osteoclast formation by p62^−/− OCL precursors were examined to determine the specificity of the effects of the p62-ZZ inhibitor #3 on osteoclast precursors. CDIIb(+) mononuclear cells from wild type and p62″/_mice were used. […] OCLs were scored as TRAP positive cells containing 3 or more nuclei. […]
# [2] = test system: p62 knockout OCL precursors; assay: OCL formation by p62-/- mouse osteoclast precursors, TRACP stain; type: cell-based; settings: 7 days, 50 ng/ml TNFα
# Method: as §1
# VCAM-1 expression = assay: TNF-α induced VCAM-1 expression by marrow stromal cells, Western blot; type: cell-based, human; settings: 3 h pre-treatment, TNFα 48 hours
# Method: FIG. 5A-B: 5A. VCAM-1 expression using Western blot analysis. Normal human stromal cells were cultured with/without TNF and p62-ZZ inhibitors (#1-6) for 48 hours. The cell lysates were collected and VCAM-1 expression was measured using an anti-VCAM-1 antibody (Santa Cruz). FIG. 5B. IL-6 production by human and mouse marrow stromal cells by ELISA. Normal human and mouse marrow stromal cells were cultured with/without TNFα and p62-ZZ inhibitors (#1-6) for 48 hours. The cell culture media were collected and IL-6 production measured using an IL-6 ELISA kit (R &D). Data are shown as the means (n=2). Normal human or mouse marrow stromal cells were maintained in 10% FBS-IMDM and treated with p62-ZZ inhibitors (#1-6) for 3 hours. Then TNFα or vehicle was added for 48 hours. Cell lysates were collected and VCAM-1 expression measured by Western blot using an anti-VCAM-1 antibody (Santa Cruz). The culture media were collected and IL-6 production was measured using an IL-6 ELISA kit (R&D Company).
# [3] = test system: GFP-labeled human myeloma MM1.S cells; assay: GFP-labeled MM1.S myeloma cell growth with/without stromal cells, fluorescence microscopy; type: cell-based; settings: 10 μM, 72 hours
# Method: FIG. 3 is a graph depicting MM cell growth inhibition. Data is shown as the mean±SD (n=5). *: P<0.01 compared to no-inhibitor cultures without stromal cells. **: P<0.01 compared to no-treatment co-cultured with stromal cells.
# Compound 3 was tested for its capacity to block MM-stimulated signaling in marrow stromal cells, thereby resulting in less bone destruction and MM growth. The effects of the compound 3 on GFP-labeled MM1.S myeloma cell growth with/without stromal cells, IL-6 and VCAM-1 expression on stromal cells induced by TNF-α and OCL formation, and TNF-α induced PKCζ phosphorylation, the specific kinase enzyme activated p62-ZZ, were examined. GFP-labeled MM1.S myeloma cells or normal human CFU-GM, a source of OCL precursors, were then co-cultured with human stromal cells with the p62-ZZ inhibitor. The 10 μM of inhibitor compound 3 blocked MM cell growth by 90% compared to vehicle (0.1% DMSO). […] VCAM-1 expression and IL-6 production induced by TNF-α on stromal cells was blocked by 30% and 90% respectively compared to vehicle levels. Furthermore, TNF-α induced PKC, phosphorylation blocked was in stromal cells and MM1.S when pre-treated with this p62-ZZ inhibitory compound for 3 hours.
# Primary human bone marrow stromal cells were maintained in 10% FCS-IMDM. Stromal cells (1.5×10^3 cells/well) were cultured one day prior to the start of co-culture. Green fluorescent protein (GFP)-labeled human myeloma MM1.S cells (7.5×10^3 cells/well) were then cultured with/without stromal cells in the presence or absence of the p62-ZZ inhibitors (#1-6) for 72 hours. MM cell growth was determined by fluorescence microscopy.
smiles,measurement,setting,value
"OCCNCc1ccc(OCc2ccccc2)c(OCc2ccccc2)c1 [Compound 3, 2-[[3,4-bis(phenylmethoxy)phenyl]methylamino]ethanol]",IC50,"[1]; Mus musculus, Osteoclast, 168 h, read-out: IC50 concentration for OCL formation, wild type cells",1 ng/mL
same,OCL formation in wild type mice cell cultures,[1]; various concentrations,blocked OCL formation dose dependently
same,OCL formation by p62 knockout OCL precursors,[2],did not block
same,VCAM-1 expression induced by TNF-α blocked compared to vehicle,VCAM-1 expression,30%
same,MM cell growth (result in words),[3]; FIG. 3,directly blocked MM cell growth
same,MM cell growth blocked compared to vehicle,[3]; vs vehicle (0.1% DMSO),90%

# From patent US11739053B2, “P62-ZZ chemical inhibitor” (ID4PHARMA, LLC, priority 2011, dated 2023)
